ChEMBL document CHEMBL1201862, “PubChem BioAssay data set” (2004)
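Briefly, cells in 96-well plates were exposed to five compound concentrations for 48 h, and endpoints were estimated by linear interpolation. Abbreviation: GI50, concentration required for 50% inhibition of growth.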 Activity calls are given as the source filed them. Cut-off read from the data, not from the text of the source: active = GI50 up to about 1.1 µM and inactive = higher. Where a SMILES comes first, the peptide text is derived from it. [ ]: non-standard residue; d: D form. The star is where a group is joined. Phe(4-NO2) = N[CH](Cc1ccc([N+](=O)[O-])cc1)C(=O)O; Boc = CC(C)(C)OC(=O)*; OtBu = CC(C)(C)O*

Assays:
Experiment in all cases: inhibition of tumour cell growth, NCI panel, 48 h
[1] = test system: HOP-18
[2] = test system: M19-MEL
[3] = test system: KM-20L2
[4] = test system: XF498
[5] = test system: DLD-1
[6] = test system: LXFL 529
[7] = test system: SNB-78
[8] = test system: Hs-578T
[9] = test system: RXF 631

Compound	GI50 [2]	GI50 [3]	GI50 [8]	also measured
N#CC1C(C#N)C2(c3ccccc3)C(c3ccccc3)=NN(c3ccccc3)CC12 (configuration not stated)	> 100 µM (inactive)	> 100 µM (inactive)		GI50 [1]: > 100 µM (inactive); GI50 [4]: > 100 µM (inactive); GI50 [5]: > 100 µM (inactive); GI50 [6]: > 100 µM (inactive); GI50 [7]: > 100 µM (inactive)
CN(C)c1ccc(C2CC(c3ccc4ccccc4c3O)=NN2c2ccc([N+](=O)[O-])cc2[N+](=O)[O-])cc1 (configuration not stated)			48.8 µM (inactive)	
O=C(O)c1ccc(C2=Cc3cc(Cl)ccc3OC2)cc1	> 100 µM (inactive)	> 100 µM (inactive)		GI50 [1]: 55.1 µM (inactive); GI50 [4]: > 100 µM (inactive); GI50 [5]: > 100 µM (inactive); GI50 [6]: > 100 µM (inactive); GI50 [7]: > 100 µM (inactive)
CN(C)CCOc1cccc2c1C(=O)c1ccccc1C2=O	5.65 µM (inactive)	13.9 µM (inactive)		GI50 [1]: 16 µM (inactive); GI50 [4]: 18.7 µM (inactive); GI50 [5]: 8.34 µM (inactive); GI50 [6]: 12.1 µM (inactive); GI50 [7]: 13.6 µM (inactive)
S=C(Nc1ccc(/N=N/c2ccccc2)cc1)SCc1ccccc1			22.2 µM (inactive)	
CC(C)(C)c1cc(C(=O)O)c2c(c1)C(=O)OC2(c1ccccc1)c1ccccc1C(=O)O (configuration not stated)	> 100 µM (inactive)	> 100 µM (inactive)		GI50 [1]: > 100 µM (inactive); GI50 [4]: > 100 µM (inactive); GI50 [5]: > 100 µM (inactive); GI50 [6]: > 100 µM (inactive)
Cc1nc2ccccc2c(=O)n1/N=C(\N=N\c1ccccc1Cl)c1ccccc1	25.8 µM (inactive)	21.9 µM (inactive)		GI50 [1]: 27.5 µM (inactive); GI50 [4]: 21.1 µM (inactive); GI50 [5]: 29.1 µM (inactive)
COc1ccc(/C=N/N=C(\N)NO)c(O)c1			> 10 µM (inactive)	
Cc1cn(S(=O)(=O)c2ccccc2)c2c(OCc3ccccc3)cc(NS(C)(=O)=O)cc12			39.5 µM (inactive)	
COC(=O)C1=C(C(=O)NNc2ccccc2)N(c2cccnc2Cl)C(c2ccccc2)=CC1c1ccccc1 (configuration not stated)			> 100 µM (inactive)	
O=P(O)(O)C(NCC(O)CN1CCOCC1)P(=O)(O)O (configuration not stated)			10.2 µM (inactive)	
CC(=O)OCC1OC(N2C(=O)CC(N)=Nc3ccccc32)C(OC(C)=O)C(OC(C)=O)C1OC(C)=O (configuration not stated)			> 100 µM (inactive)	
CC(C)/C(Cl)=N/OC(=O)Nc1ccc(Br)cc1			21.7 µM (inactive)	
CCOC(=O)C1Cc2ccc(C)cc2C1=O (configuration not stated)			> 100 µM (inactive)	
COc1ccc(NC(=O)Oc2cc(C)c3ccc(=O)cc-3o2)c(OC)c1.COc1ccc(NC(=O)Oc2ccc3c(C)cc(=O)oc3c2)c(OC)c1			> 100 µM (inactive)	
O=C1C2C=CC(C2)C(c2ccc(O)cc2)N1O (configuration not stated)	> 100 µM (inactive)	> 100 µM (inactive)		GI50 [4]: > 100 µM (inactive); GI50 [5]: > 100 µM (inactive); GI50 [6]: > 100 µM (inactive); GI50 [7]: > 100 µM (inactive)
O=C(Nc1ccc(Cl)cc1Cl)c1cc2nc3ccccc3c(=O)n2c2ccccc12			> 10 µM (inactive)	

Compound	GI50 [2]	GI50 [3]	GI50 [8]	also measured
C=CCc1ccccc1CC1(OCC)OC(=O)c2ccccc21 (configuration not stated)			> 100 µM (inactive)	
CN1Cc2ccccc2/C=C\c2ccccc21			44.8 µM (inactive)	
O=C1Nc2nnc(S)n2NC12c1ccccc1-c1ccccc12			> 100 µM (inactive)	
CN1C(=O)CC2CCC(=O)N2c2cccnc21 (configuration not stated)			> 100 µM (inactive)	
Cc1n[nH]c(=O)n1C1CCCC1			> 100 µM (inactive)	
COC(=O)[C@@]12C3=NO[C@]1(C(=O)OC)C(O[Si](C)(C)C(C)(C)C)[C@H]1OC(C)(C)O[C@H]1[C@@H]2C(OCc1ccccc1)CC3 (some centres not stated)	71.8 µM (inactive)	71.1 µM (inactive)		GI50 [1]: > 100 µM (inactive); GI50 [5]: 85.1 µM (inactive); GI50 [6]: 60 µM (inactive)
CC(=O)C1C(=O)C(=O)N(c2cccc([N+](=O)[O-])c2)C1=O (configuration not stated)			> 100 µM (inactive)	
O=c1cc(C(F)(F)F)c2cc3c(cc2o1)NCCC3			18.5 µM (inactive)	
Cc1[nH]n(-c2ccc(S(=O)(=O)O)cc2)c(=O)c1/N=N/c1ccccc1			> 100 µM (inactive)	
CC(C)(C)OC(=O)Nc1nnc(S(N)(=O)=O)s1			> 100 µM (inactive)	
O=C1c2ccccc2-c2oc(=O)c3ccccc3c21			> 100 µM (inactive)	
CC(=O)Oc1ccc(/C=C/C(=O)NCCOC(=O)/C=C/c2ccc(OC(C)=O)c(OC(C)=O)c2)cc1OC(C)=O			33.6 µM (inactive)	
COc1cc(/C=C\c2ccc(O)cc2)cc(OC)c1OC	3.66 µM (inactive)	33.3 µM (inactive)		GI50 [1]: 22.3 µM (inactive); GI50 [4]: 9.98 µM (inactive); GI50 [5]: > 100 µM (inactive); GI50 [6]: 4.18 µM (inactive); GI50 [7]: 3.96 µM (inactive)
Cn1cnc([N+](=O)[O-])c1Sc1nc2ccccc2s1	11.5 µM (inactive)	10.4 µM (inactive)		GI50 [1]: 0.286 µM (active); GI50 [9]: 4.84 µM (inactive); GI50 [5]: 5.07 µM (inactive); GI50 [6]: 10.5 µM (inactive); GI50 [7]: 12.7 µM (inactive)
COC(=O)C(Cc1ccc([N+](=O)[O-])cc1)NC(=O)C(CC(=O)OC(C)(C)C)NC(=O)OC(C)(C)C (configuration not stated) (Boc-Asp(OtBu)-[Phe(4-NO2)]-OMe; configuration not given here)			20.1 µM (inactive)	
CCCCCCCCCCCCCC(=O)O[C@H]1CC[C@H](NC(=O)[C@H](OC)[C@H](O)[C@@H](O)[C@H](O)/C=C/C(C)C)C(=O)NC1 [BENGAMIDE A]	0.0033 µM (active)	0.0045 µM (active)	0.237 µM (active)	GI50 [1]: > 10 µM (inactive); GI50 [4]: 0.0147 µM (active); GI50 [6]: 0.00386 µM (active); GI50 [7]: > 10 µM (inactive)
